Experimental data taken from patent publication EP4670733A1, “METHODS FOR PREPARING VIRAL PROTEINS AND USES THEREOF” (priority 2024, dated 2025).

Key:
[1] = test system: NA enzyme; assay: NA enzymatic activity, MUNANA assay; type: biochemical, influenza virus; conditions: drug substance (Sample E6)
[2] = test system: B/Phuket/3073/2013 virus strain; assay: HA content by SRID; parameters: species or system influenza virus
[3] = Endotoxin content, limulus amoebocyte lysate (LAL) assay; conditions: drug substance (Sample E6)
[4] = test system: B/Phuket/3073/2013 virus strain; parameters: species or system influenza virus
[5] = test system: B/Phuket/3073/2013 virus strain; assay: Splitting efficiency by ultracentrifugation in sucrose gradient; parameters: species or system influenza virus

Substance | NA enzymatic activity: NA activity [1] [µmol/mL/h] | NA enzymatic activity: Specific activity [1] [µmol/mg/h] | HA content in µg/mL (SRID) [2] [µg/mL] | Endotoxin content [3] [EU/mL] | Residual infectious virus [4] | Splitting efficiency (ultracentrifugation in sucrose gradient) [5]
C11-15-secondary alcohol ethoxylates | 228 | 1915 | 241.24 | < 0.5 | No Residual infectious virus | 
Triton X-100 | 155 |  | 269.97 | < 0.5 | No Residual infectious virus | Conform* (Max total protein by OD280 at 40%sucrose for whole virus and lower than 30%sucrose for split virus.)
